{"source": "patent US20050226878A1", "about": "“Therapeutic combinations and methods including IRM compounds” (3M Innovative Properties Company, priority 2003, published 2005)", "key": {"[1]": {"tested_on": "Peripheral blood mononuclear cells (PBMCs)", "experiment": "Example 1: TNF-α secreted by PBMCs treated with IRM1 after dexamethasone pre-incubation (ELISA)", "type": "cell-based, human", "conditions": "IRM1 1 μM, no dexamethasone, 24 hours", "excerpt": "(§1) Whole blood from healthy human donors was collected by venipuncture into EDTA vacutainer tubes (Becton Dickinson Labware, Lincoln Park, N.J.). Peripheral blood mononuclear cells (PBMCs) are separated from whole blood by density gradient centrifugation using HISTOPAQUE-1077 (Sigma-Aldrich Chemical Co., St. Louis, Mo.). The PBMCs are washed twice with Hank's Balanced Salts Solution (Celox Laboratories, Inc., Hopkins, Minn.) and then are suspended at 3-4×10^6 cells/mL in RPMI complete culture medium (Celox Laboratories, Inc., Hopkins, Minn.). The PBMC suspension was added to 48 well flat bottom sterile tissue culture plates (Becton Dickinson Labware, Lincoln Park, N.J.) containing an equal volume of RPMI complete media containing dexamethasone (Sigma Chemical Co., St. Louis, Mo.) at one of the dexamethasone concentrations indicated in Table 2. After one hour, IRMI was added to a final concentration of 1 μM, and then incubated at 37° C. for an additional 24 hours. Following incubation the cells were centrifuged for 5-10 minutes at 1000 rpm (˜200×g) at 4° C. […] The samples were analyzed for IFN-α and TNF-α secreted into the culture medium. The concentration of secreted IFN-α was determined by ELISA using a Human Multi-Species kit (PBL Biomedical Laboratories, Piscataway, N.J.). […]"}, "[2]": {"tested_on": "Peripheral blood mononuclear cells (PBMCs)", "experiment": "Example 1: IFN-α secreted by PBMCs treated with IRM1 after dexamethasone pre-incubation (ELISA)", "type": "cell-based, human", "conditions": "IRM1 1 μM, no dexamethasone, 24 hours", "excerpt": "as §1"}, "Human PBMCs [3]": {"tested_on": "Human PBMCs", "experiment": "Example 4: IFN secreted by PBMCs with or without anti-TNF monoclonal antibody (virus neutralization bioassay, A549 cells/encephalomyocarditis virus)", "type": "cell-based", "conditions": "IRM2 1.0 μg/mL, LPS 0.1 μg/mL, 24 hours", "experimental": "(§2) Human PBMCs were collected and prepared as described in Example 1. The cells were incubated with an anti-TNF monoclonal antibody (mouse anti-human TNF, Promega Corp., Madison, Wis.). After one hour, the cells were treated with IRM compound, LPS, or left unstimulated, and then incubated for an additional 24 hours.\nSecreted IFN was assayed using a virus neutralization bioassay using A549 human lung carcinoma cells challenged with encephalomyocarditis. The details of the bioassay method have been described by G. L. Brennan and L. H. Kronenberg in “Automated Bioassay of Interferons in Micro-test Plates”, Biotechniques, June/July, 78, 1983, incorporated herein by reference. Briefly stated the method is as follows: A549 cells are incubated with dilutions of samples or a standard interferon at 37° C. for 24 hours. The incubated cells are then infected with an inoculum of encephalomyocarditis virus. The infected cells are incubated for an additional 24 hours at 37° C. before evaluating for viral cytopathic effect. The viral cytopathic effect is quantified by staining with crystal violet followed by visual scoring of the plates. Results are expressed as alpha reference units/mL based on the value obtained for NIH Human Leukocyte IFN standard."}, "Human PBMCs [4]": {"tested_on": "Human PBMCs", "experiment": "Example 4: IL-6 secreted by PBMCs with or without anti-TNF monoclonal antibody (ELISA)", "type": "cell-based", "conditions": "IRM2 1.0 μg/mL, LPS 0.1 μg/mL, 24 hours", "experimental": "as §2\n(§3) Secreted TNF-α and IL-6 were assayed by ELISA (Biosource International, Inc., Camarillo, Calif.). Results are expressed in pg/mL for each cytokine."}, "Human PBMCs [5]": {"tested_on": "Human PBMCs", "experiment": "Example 2: TNF-α secreted by PBMCs treated with IRM compound or LPS after dexamethasone pre-incubation (ELISA)", "type": "cell-based", "conditions": "IRM2 1.0 μg/mL, LPS 0.1 μg/mL, 24 hours", "experimental": "Human PBMCs were collected and prepared as described in Example 1. After one hour, the cells were treated with IRM compound, LPS, or left unstimulated, and then incubated for an additional 24 hours.\nSecreted TNF-α was assayed by ELISA (Biosource International, Inc., Camarillo, Calif.)."}, "male CFW mice": {"tested_on": "male CFW mice", "experiment": "Example 3: serum TNF in mice challenged with IRM2 after oral dexamethasone (ELISA)", "type": "in vivo", "conditions": "IRM2 10 mg/kg, no dexamethasone", "experimental": "A dexamethasone solution was prepared in saline and administered orally (3 mg/kg) to male CFW mice (Charles River Laboratories, Inc., Wilmington, Mass.) once or once daily for five days. Thirty minutes after the final administration of dexamethasone, the mice were challenged with a solution of IRM2 prepared in saline to provide a dose of 10 mg/kg. The mice were bled either 2 hours or 3 hours after being challenged with IRM2. Serum samples were analyzed by for TNF by ELISA as described in Example 1."}, "Human PBMCs [6]": {"tested_on": "Human PBMCs", "experiment": "Example 4: TNF-α secreted by PBMCs with or without anti-TNF monoclonal antibody (ELISA)", "type": "cell-based", "conditions": "IRM2 1.0 μg/mL, LPS 0.1 μg/mL, 24 hours", "experimental": "as §2, §3"}, "PBMCs [7]": {"tested_on": "PBMCs", "experiment": "Example 6: TNF-α induction by PBMCs with anti-TNF antibody or isotype control (immunoassay, FIG. 2)", "type": "cell-based, human", "conditions": "for TNF-α induced in combination with anti-TNF antibody: IRM 3 μM + 1 μg/mL anti-TNF antibody, FIG. 2B; for TNF-α induction: IRM 3 μM alone (isotype control antibody), FIG. 2A", "experimental": "(§4) Whole blood from healthy human donors was collected by venipuncture into EDTA vacutainer tubes (Becton Dickinson Labware, Lincoln Park, N.J.). […] The PBMCs are washed twice with Phosphate Buffered Saline (PBS, Biosource, Camarillo, Calif.) and then are suspended at 5×10^6 cells/mL in RPMI complete culture medium (Celox Laboratories, Inc., Hopkins, Minn.). One milliliter of the PBMC suspension and 1.5 milliliter of RPMI complete media were added to each well of a 24 well flat bottom sterile tissue culture plate (Becton Dickinson Labware, Lincoln Park, N.J.) for a final PBMC concentration of 2×10^6 cells/mL.\n(§5) Following incubation the cells were centrifuged for 5-10 minutes at 1000 rpm (˜200×g) at 4° C. The cell-free culture supernatant was removed with a sterile polypropylene pipette and transferred to sterile polypropylene tubes. Samples were maintained at −70° C. until analysis.\n(§6) The samples were analyzed for IFN-α, TNF-α and IFN-γ secreted into the culture medium. The concentration of secreted IFN-α was determined by ELISA using a Human Multi-Species kit (PBL Biomedical Laboratories, Piscataway, N.J.). Secreted TNF-α and IFN-γ were analyzed using a human-specific TNF-α BV™ or IFN-γ BV™ immunoassay (BioVeris Corp., Gaithersburg, Md.)."}, "PBMCs [8]": {"tested_on": "PBMCs", "experiment": "Example 6: IFN-α induction by PBMCs with anti-TNF antibody or isotype control (ELISA, FIG. 1)", "type": "cell-based, human", "conditions": "for IFN-α produced in combination with anti-TNF antibody versus IRM alone: IRM 3 μM + 1 μg/mL anti-TNF antibody, FIG. 1B versus FIG. 1A", "experimental": "as §4, §5, §6"}, "[9]": {"conditions": "+Ab (anti-TNF monoclonal antibody)"}}, "data": [{"smiles": "CCOCc1nc2c(N)nc3ccccc3c2n1CC(C)(C)O", "note": "[IRM1, 4-amino-α,α-dimethyl-2-ethoxymethyl-1H-imidazo[4,5-c]quinolin-1-ethanol]", "values": [{"measurement": "TNF", "setting": "[1]", "value": 3000, "unit": "pg/mL"}, {"measurement": "IFN", "setting": "[2]", "value": 959, "unit": "U/mL"}]}, {"smiles": "Cc1nc2c(N)nc3ccccc3c2n1CC(C)(C)O", "note": "[IRM2, 4-amino-α,α,2-trimethyl-1H-imidazo[4,5-c]quinoline-1-ethanol]", "values": [{"measurement": "IFN", "setting": "Human PBMCs [3]; [9]", "value": 290, "unit": "U/mL"}, {"measurement": "IFN", "setting": "Human PBMCs [3]; No Ab", "value": 460, "unit": "U/mL"}, {"measurement": "IL-6", "setting": "Human PBMCs [4]; [9]", "value": 24189, "unit": "pg/mL"}, {"measurement": "IL-6", "setting": "Human PBMCs [4]; No Ab", "value": 20137, "unit": "pg/mL"}, {"measurement": "Secreted TNF-α", "setting": "Human PBMCs [5]; 0 μM Dex.", "value": 1570, "unit": "pg/mL"}, {"measurement": "Secreted TNF-α", "setting": "Human PBMCs [5]; 0.01 μM Dex.", "value": 775, "unit": "pg/mL"}, {"measurement": "Secreted TNF-α", "setting": "Human PBMCs [5]; 0.1 μM Dex.", "value": 224, "unit": "pg/mL"}, {"measurement": "Secreted TNF-α", "setting": "Human PBMCs [5]; 1.0 μM Dex.", "value": 191, "unit": "pg/mL"}, {"measurement": "Serum TNF", "setting": "male CFW mice; 2 hrs. post-challenge", "value": 2983, "unit": "pg/mL"}, {"measurement": "Serum TNF", "setting": "male CFW mice; 3 hrs. post-challenge", "value": 487, "unit": "pg/mL"}, {"measurement": "TNF", "setting": "Human PBMCs [6]; [9]", "value": 61, "unit": "pg/mL"}, {"measurement": "TNF", "setting": "Human PBMCs [6]; No Ab", "value": 1340, "unit": "pg/mL"}]}, {"smiles": "CCOCc1nc2c(N)nc3c(c2n1CC(C)(C)O)CCCC3", "note": "[IRM5, 4-amino-2-(ethoxymethyl)-α,α-dimethyl-6,7,8,9-tetrahydro-1H-imidazo[4,5-c]quinoline-1-ethanol]", "values": [{"measurement": "TNF-α induced in combination with anti-TNF antibody", "setting": "PBMCs [7]", "value": "substantially limited"}, {"measurement": "TNF-α induction", "setting": "PBMCs [7]", "value": "significant levels"}, {"measurement": "IFN-α produced in combination with anti-TNF antibody versus IRM alone", "setting": "PBMCs [8]", "value": "increased levels"}]}, {"smiles": "CCc1nc2c(N)nc3ccccc3c2n1CCCCNS(C)(=O)=O", "note": "[IRM8, N-[4-(4-amino-2-ethyl-1H-imidazo[4,5-c]quinolin-1-yl)butyl]methanesulfonamide]", "values": [{"measurement": "TNF-α induction", "setting": "PBMCs [7]", "value": "relatively poor inducer"}, {"measurement": "IFN-α produced in combination with anti-TNF antibody versus IRM alone", "setting": "PBMCs [8]", "value": "increased levels"}, {"measurement": "IFN-α induction", "setting": "PBMCs [8]; IRM 3 μM alone (isotype control antibody), FIG. 1A, compared to other IRM compounds", "value": "relatively potent inducer"}]}, {"smiles": "COCCc1nc2c(N)nc3ccccc3c2n1CCOCCNC(=O)N1CCOCC1", "note": "[IRM12, N-(2-{2-[4-amino-2-(2-methoxyethyl)-1H-imidazo[4,5-c]quinolin-1-yl]ethoxy}ethyl)morpholine-4-carboxamide]", "values": [{"measurement": "TNF-α induced in combination with anti-TNF antibody", "setting": "PBMCs [7]", "value": "substantially limited"}, {"measurement": "TNF-α induction", "setting": "PBMCs [7]", "value": "significant levels"}, {"measurement": "IFN-α produced in combination with anti-TNF antibody versus IRM alone", "setting": "PBMCs [8]", "value": "increased levels"}]}]}
